Experimental data as given in patent US9567347B2, “Use of small molecule inhibitors targeting the interaction between RAC GTPase and p67(phox)” (CHILDREN'S HOSPITAL MEDICAL CENTER, priority 2012, dated 2017).

Tests used:
[1] = test system: Pak; experiment: immunoblot of phosphorylated Pak; assay type: cell-based, human; settings: 18 hr treatment
Procedure: Whole-cell lysates were prepared by cell extraction using lysis buffer containing 20 mM Tris-HCl (pH 7.6), 100 mM NaCl, 10 mM MgCl2, 1% Triton X-100, 0.2% sodium deoxycholate, 1 mM phenylmethylsulfonyl fluoride, 10 μg/mL of leupeptin, 1 μg/mL of aprotinin, and 1 mM dithiothreitol for 30 min. Equal amounts of protein, as determined by Bradford assay, were resolved by SDS-PAGE. Specific proteins were detected by standard 9 immunoblotting procedures using the following primary antibodies: (Cell Signaling, 1:500 dilution) phospho-PAK1 (Ser144)/PAK2 (Ser141), (Sigma-Aldrich 1:500) β-Actin.
To analyze the biochemical specificity of these lead inhibitors on the effector pathways of active Rac1, undifferentiated HL-60 cells were treated with Phox-I1, Phox-I2, or NSC23766 for 18 hr. Immunoblot of the cell lysates was performed to probe the activity of Pak, a Rac effector other than p67^phox (FIG. 4B).

[2] = test system: primary murine neutrophils; experiment: F-actin immunofluorescence, polarization upon fMLP stimulation; assay type: cell-based, mouse; settings: 10 μM; untreated control about 80%
Procedure: Cells were pretreated with compound for 40 minutes prior to wash, and resuspended in HBSS with compound. Cells were allowed to adhere to fibronectin (Sigma Aldrich) coated glass coverslips (15 min) and then stimulated with 100 nM fMLP (3 min). Coverslips were then fixed with 3.7% paraformaldehyde (Sigma Aldrich) and then staining for […] was performed with rhodamine phalloidin per the manufacturer's instructions (Molecular Probes). Another method of addressing Rac-signaling specificity in neutrophils is by monitoring their ability to polarize actin to the leading edge upon fMLP stimulation. Neither Phox-I1, Phox-I2, nor an analog 13 (all at 10 μM), were able to block the Rac-mediated dynamic process of F-actin polarization to the leading edge of primary murine neutrophils as observed by F-actin immunofluorescence imaging (FIG. 4C, left panel). F-actin polarization was evident in about 80% of each treatment group of cells as in the control, untreated cells (FIG. 4C, right panel).

[3] = target: T1, p67^phox recombinant protein (1-200) (Homo sapiens, UniProt P19878); experiment: microscale thermophoresis binding to p67phox
T1 construct: using the pET30-HIS p67(1-212) plasmid; His; made in house; host or cells: E. coli BL21(DE3)
T1 sequence (P19878 1-212): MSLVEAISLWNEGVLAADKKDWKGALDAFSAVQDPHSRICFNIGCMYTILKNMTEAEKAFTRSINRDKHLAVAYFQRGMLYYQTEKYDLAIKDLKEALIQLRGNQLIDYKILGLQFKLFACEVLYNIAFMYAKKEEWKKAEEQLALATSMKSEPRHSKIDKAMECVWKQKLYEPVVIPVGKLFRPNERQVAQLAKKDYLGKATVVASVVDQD
Procedure: The p67^phox protein was expressed in BL21(DE3) bacteria (Stratagene) using the pET30-HIS p67(1-212) plasmid. Protein was purified using the QIAexpress Ni-NTA kit (Qiagen) or the GST Bind Resin Chromatography Kit (Novagen) for RacV12 and RacWT proteins. Mutagenesis was carried out using the Quick Change Lightening Site Directed Mutagenesis Kit (Stratagene).
Proteins were labeled for microscale thermophoresis using the Monolith NT Protein Labeling Kit Red (Nano Temper Technologies) as recommended by the manufacturer. Binding reactions were carried out using the Monolith NT. 115 (Nano Temper Technologies). Binding data was analyzed using Graphpad Prizm to estimate Kd values. The arbitrary fluorescence value from the thermophoresis plots for the smallest compound titration was subtracted from every other data point (Delta depletion) prior to normalization to a Vmax of 100. In thermophoresis plots where there was no binding, a curve could not be fit and therefore no Vmax could be assigned. In these instances the highest delta depletion value was set to 100 and all data were normalized accordingly.
To test the ability of compounds identified by preliminary screening to bind to the p67^phox protein in the N-terminal 200 amino acid region involved in Rac1-GTP interaction, microscale thermophoresis was employed. This technology probes for fluorescent changes in the hydration shell of molecules in order to measure protein-protein or protein small molecule interactions with high sensitivity in near-native conditions.

[4] = test system: undifferentiated HL-60 cells; experiment: apoptosis analysis by FACS (Annexin V / 7-AAD); assay type: cell-based, human; settings: 20 or 100 μM
Procedure: Cells (5×10^5) were harvested and processed for Annexin V/7AAD staining according to manufacturer's protocol (Becton Dickinson). Flow cytometry data were acquired on a FACS Canto bench-top flow cytometer (Becton Dickinson) and the cell cycle distributions were determined by […] using Flo-Jo software (Bosco et al (2010) Blood 115, 3320-3328, hereby incorporated by reference in its entirety). For ROS production assay, primary murine neutrophils or dHL60 cells were incubated with compound for 2 hours prior to addition of H2-DCFDA according to manufacturer's instructions (Molecular Probes). Cells were then stimulated with 10 μM fMLP (Sigma), 1 mM CaCl2, and 1.5 mM MgCl2 for 15 minutes prior to wash and FACS analysis for mean fluorescence intensity. Non-fMLP stimulated control values were subtracted from all samples before normalization to fMLP-stimulated, vehicle control treated sample in order to display percent ROS inhibition.
In order to determine potency and cytotoxicity of Phox-I1 and Phox-I2, the levels of apoptosis were assessed in undifferentiated HL-60 cells treated with 20 or 100 μM Phox-I1, Phox-I2, or NSC23766 by FACS analysis for Annexin V (FIG. 4A).

[5] = target: T2, xanthine oxidase (Bos taurus, UniProt P80457); experiment: xanthine/xanthine oxidase assay; assay type: biochemical; settings: 10 μM, 30 min at room temperature
T2 construct: purchased Sigma Aldrich
T2 sequence (P80457 2-1332 limits assumed): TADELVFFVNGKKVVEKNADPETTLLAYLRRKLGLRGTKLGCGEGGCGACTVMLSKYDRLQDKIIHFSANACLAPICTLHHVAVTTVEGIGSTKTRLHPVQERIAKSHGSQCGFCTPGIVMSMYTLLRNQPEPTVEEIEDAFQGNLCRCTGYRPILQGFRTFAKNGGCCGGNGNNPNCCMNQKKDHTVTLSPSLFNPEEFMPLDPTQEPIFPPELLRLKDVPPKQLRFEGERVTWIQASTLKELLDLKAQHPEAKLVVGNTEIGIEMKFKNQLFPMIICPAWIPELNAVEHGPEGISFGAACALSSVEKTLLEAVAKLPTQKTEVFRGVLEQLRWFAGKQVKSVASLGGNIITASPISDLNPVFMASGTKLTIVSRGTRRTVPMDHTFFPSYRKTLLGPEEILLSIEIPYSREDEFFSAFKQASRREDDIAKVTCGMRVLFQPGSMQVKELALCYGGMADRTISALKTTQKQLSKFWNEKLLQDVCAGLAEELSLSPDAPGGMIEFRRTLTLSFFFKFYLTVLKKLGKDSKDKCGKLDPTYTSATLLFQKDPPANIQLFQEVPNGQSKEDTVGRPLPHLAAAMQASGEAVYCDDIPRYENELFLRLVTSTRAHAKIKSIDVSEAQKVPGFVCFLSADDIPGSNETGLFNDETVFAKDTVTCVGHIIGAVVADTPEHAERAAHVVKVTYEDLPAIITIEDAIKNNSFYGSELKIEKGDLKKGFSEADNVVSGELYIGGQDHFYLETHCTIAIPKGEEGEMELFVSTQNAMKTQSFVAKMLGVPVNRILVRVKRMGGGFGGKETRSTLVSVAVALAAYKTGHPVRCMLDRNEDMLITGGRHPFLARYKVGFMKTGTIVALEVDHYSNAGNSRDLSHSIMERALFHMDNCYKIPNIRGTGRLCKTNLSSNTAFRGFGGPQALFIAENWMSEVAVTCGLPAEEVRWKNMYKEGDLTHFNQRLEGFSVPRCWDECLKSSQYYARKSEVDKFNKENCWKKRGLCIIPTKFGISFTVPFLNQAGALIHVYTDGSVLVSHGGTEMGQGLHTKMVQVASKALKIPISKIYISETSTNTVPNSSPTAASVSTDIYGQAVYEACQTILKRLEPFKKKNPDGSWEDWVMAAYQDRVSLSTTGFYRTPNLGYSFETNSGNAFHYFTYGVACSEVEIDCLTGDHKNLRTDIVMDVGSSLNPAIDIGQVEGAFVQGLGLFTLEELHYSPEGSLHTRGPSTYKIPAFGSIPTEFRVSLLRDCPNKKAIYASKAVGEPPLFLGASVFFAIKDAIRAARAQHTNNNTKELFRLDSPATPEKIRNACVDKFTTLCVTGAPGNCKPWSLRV
Procedure: Chemiluminescence was measured using GloMax®-96 Microplate Luminometer (Promega) (Tarpey et al., (2004) Am J Physiol Regul Integr Comp Physiol 286: R431-R444, hereby incorporated by reference in its entirety). The generation of […] by the xanthine/xanthine oxidase was performed in PBS supplemented with xanthine oxidase (0.004 U), HRP (0.005 U·mL^−1) and L012, following the protocol described in Wind et al., (2010) Br J Pharmacol. 161, 885-898, hereby incorporated by reference in its entirety. The reaction was started by the addition of xanthine (0.5 mM).
To test if the inhibitors are specific for the NOX2 enzyme, a xanthine/xanthine oxidase assay was performed. Specifically, vehicle, NAC (10 mM), […] or Phox-I2 (10 μM) was added to the assay, and incubated for 30 min at room temperature. The results were calculated by taking superoxide production in the absence of inhibitors as 100 and value obtained with NAC, Pghox-I1 or Phox-I2 was expressed as relative %. The data shown in FIG. 6 represent those from three separate experiments.

SMILES | phosphorylated Pak levels [1] | cells with F-actin polarization [2] | Kd [3] | cell apoptosis (Annexin V) [4] | xanthine oxidase-mediated ROS production [5] | binding to p67^phox [3]
COc1ccc2c(c1)C1C=C(c3ccccc3)NN1C(c1cccc([N+](=O)[O-])c1)O2 (centres unmarked) [Phox-I1] | not | about 80% | ~100 nM | no detectable effect on cell apoptosis | does not affect | –
O=[N+]([O-])c1cccc(C2Nc3ccc([N+](=O)[O-])cc3C3C=CCC32)c1 (centres unmarked) [Phox-I2] | not | about 80% | ~150 nM | no detectable effect on cell apoptosis | does not affect | high affinity
